Here are results for 23 compounds from patent publication US11065257B2, “Substituted pyrazoloazepin-4-ones and their use as phosphodiesterase inhibitors” (LEO Pharma A/S, priority 2016, dated 2021).

pIC50: −log10 of the molar value.

T1 sequence (Q08499 380-740): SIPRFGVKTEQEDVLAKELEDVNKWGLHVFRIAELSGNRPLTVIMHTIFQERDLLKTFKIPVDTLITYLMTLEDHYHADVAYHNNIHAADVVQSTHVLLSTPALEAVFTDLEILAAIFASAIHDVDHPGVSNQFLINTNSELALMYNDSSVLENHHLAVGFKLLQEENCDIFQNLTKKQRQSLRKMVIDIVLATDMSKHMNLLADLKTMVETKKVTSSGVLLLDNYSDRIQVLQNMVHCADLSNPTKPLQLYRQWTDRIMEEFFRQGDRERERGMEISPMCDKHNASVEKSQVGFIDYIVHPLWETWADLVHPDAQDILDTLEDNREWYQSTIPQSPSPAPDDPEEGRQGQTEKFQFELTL

The experiment has as its target T1, human PDE4D catalytic domain (Homo sapiens, UniProt Q08499).
T1 construct: UniProt no; Q08499 [S380-L740]
The experiment can be described thus: PDE4 Assay. The conditions noted are these: human PDE4D catalytic domain (S380-L740), TR-FRET with FAM-cAMP; expressed as a range of IC50; read-out: PDE4 Potency Range. In kind it is biochemical. On the procedure:
The human PDE4D catalytic domain (UniProt no. Q08499 [S380-L740]) was incubated with a mixture of non-labelled cAMP (cyclic adenosine monophosphate) and fluorescein amidite (FAM) conjugated cAMP and titrated test or reference compound. Following brief incubation the enzymatic reaction was stopped by addition of binding buffer containing nanoparticles with immobilized trivalent metal ions capable of binding 1) AMP phospho groups and 2) terbium (Tb) donor fluorophores. Subsequent excitation of the Tb donor triggers time-resolved FRET to adjacent FAM acceptor molecules resulting in light emission. In the presence of a PDE4 inhibitor, AMP generation was reduced resulting in a lower fluorescence signal. The cAMP phosphodiester is not bound by the detection system.
The results were calculated as the molar concentrations resulting in 50% inhibition of the substrate cleavage compared to controls samples, and are expressed as a range of IC50 (nM).
As to `CCc1nn(CCCOC(=O)c2cnco2)c2c1C(=O)NCC1(CCOCC1)C2` [Example 24, 3-(3-ethyl-4-oxo-spiro[6,8-dihydro-5H-pyrazolo[4,3-c]azepine-7,4′-tetrahydropyran]-1-yl)propyl oxazole-5-carboxylate], the pIC50 is below 6.30.

Consider `CCc1nn(CCCOC(=O)c2c[nH]nn2)c2c1C(=O)NCC1(CCOCC1)C2` [Example 25, 3-(3-ethyl-4-oxo-spiro[6,8-dihydro-5H-pyrazolo[4,3-c]azepine-7,4′-tetrahydropyran]-1-yl)propyl 1H-triazole-4-carboxylate], for which the pIC50 is 6.30 to 7.00.

As to `CCc1nn(CCCOC(=O)c2nc[nH]n2)c2c1C(=O)NCC1(CCOCC1)C2` [Example 26, 3-(3-ethyl-4-oxo-spiro[6,8-dihydro-5H-pyrazolo[4,3-c]azepine-7,4′-tetrahydropyran]-1-yl)propyl 1H-1,2,4-triazole-3-carboxylate], the pIC50 was below 6.30.

With `CCc1nn(CCCOC(=O)c2cnon2)c2c1C(=O)NCC1(CCOCC1)C2` [Example 27, 3-(3-ethyl-4-oxo-spiro[6,8-dihydro-5H-pyrazolo[4,3-c]azepine-7,4′-tetrahydropyran]-1-yl)propyl 1,2,5-oxadiazole-3-carboxylate], the pIC50 was 6.30 to 7.00.

For `CCc1nn(CCCOC(=O)C2CCOC2)c2c1C(=O)NCC1(CCOCC1)C2` (centres unmarked) [Example 28, 3-(3-ethyl-4-oxo-spiro[6,8-dihydro-5H-pyrazolo[4,3-c]azepine-7,4′-tetrahydropyran]-1-yl)propyl tetrahydrofuran-3-carboxylate], the pIC50 was below 6.30.

For the compound `CCc1nn(CCCOC(=O)c2cccnn2)c2c1C(=O)NCC1(CCOCC1)C2` [Example 29, 3-(3-ethyl-4-oxo-spiro[6,8-dihydro-5H-pyrazolo[4,3-c]azepine-7,4′-tetrahydropyran]-1-yl)propyl pyridazine-3-carboxylate], the pIC50 was below 6.30.

With `CCc1nn(CCCOC(=O)c2ccnnc2)c2c1C(=O)NCC1(CCOCC1)C2` [Example 30, 3-(3-ethyl-4-oxo-spiro[6,8-dihydro-5H-pyrazolo[4,3-c]azepine-7,4′-tetrahydropyran]-1-yl)propyl pyridazine-4-carboxylate], the pIC50 is below 6.30.

Regarding `CCc1nn(CCCOC(=O)c2ncccn2)c2c1C(=O)NCC1(CCOCC1)C2` [Example 31, 3-(3-ethyl-4-oxo-spiro[6,8-dihydro-5H-pyrazolo[4,3-c]azepine-7,4′-tetrahydropyran]-1-yl)propyl pyrimidine-2-carboxylate], the pIC50 was below 6.30.

With `CCc1nn(CCCOC(=O)c2ccn(C)n2)c2c1C(=O)NCC1(CCOCC1)C2` [Example 32, 3-(3-ethyl-4-oxo-spiro[6,8-dihydro-5H-pyrazolo[4,3-c]azepine-7,4′-tetrahydropyran]-1-yl)propyl 1-methylpyrazole-3-carboxylate], the pIC50 is below 6.30.

Consider `CCc1nn(CCCOC(=O)c2cc(C)n[nH]2)c2c1C(=O)NCC1(CCOCC1)C2` [Example 33, 3-(3-ethyl-4-oxo-spiro[6,8-dihydro-5H-pyrazolo[4,3-c]azepine-7,4′-tetrahydropyran]-1-yl)propyl 5-methyl-1H-pyrazole-3-carboxylate], for which the pIC50 is 6.30 to 7.00.

With `CCc1nn(CCCOC(=O)c2ccnn2C)c2c1C(=O)NCC1(CCOCC1)C2` [Example 35, 3-(3-ethyl-4-oxo-spiro[6,8-dihydro-5H-pyrazolo[4,3-c]azepine-7,4′-tetrahydropyran]-1-yl)propyl 2-methylpyrazole-3-carboxylate], the pIC50 is 6.30 to 7.00.

Turning to `CCc1nn(CCCOC(=O)c2cnc(C)[nH]2)c2c1C(=O)NCC1(CCOCC1)C2` [Example 36, 3-(3-ethyl-4-oxo-spiro[6,8-dihydro-5H-pyrazolo[4,3-c]azepine-7,4′-tetrahydropyran]-1-yl)propyl 2-methyl-1H-imidazole-4-carboxylate], the pIC50 is 6.30 to 7.00.

With `CCc1nn(CCCOC(=O)c2cnn(C)c2)c2c1C(=O)NCC1(CCOCC1)C2` [Example 38, 3-(3-ethyl-4-oxo-spiro[6,8-dihydro-5H-pyrazolo[4,3-c]azepine-7,4′-tetrahydropyran]-1-yl)propyl 1-methylpyrazole-4-carboxylate], the pIC50 was 6.30 to 7.00.

Regarding `CCc1nn(CCCOC(=O)c2cn(C)cn2)c2c1C(=O)NCC1(CCOCC1)C2` [Example 39, 3-(3-ethyl-4-oxo-spiro[6,8-dihydro-5H-pyrazolo[4,3-c]azepine-7,4′-tetrahydropyran]-1-yl)propyl 1-methylimidazole-4-carboxylate], the pIC50 was below 6.30.

Consider `CCc1nn(CCCOC(=O)c2nccn2C)c2c1C(=O)NCC1(CCOCC1)C2` [Example 40, 3-(3-ethyl-4-oxo-spiro[6,8-dihydro-5H-pyrazolo[4,3-c]azepine-7,4′-tetrahydropyran]-1-yl)propyl 1-methylimidazole-2-carboxylate], for which the pIC50 is 6.30 to 7.00.

With `CCc1nn(CCCOC(=O)c2cncn2C)c2c1C(=O)NCC1(CCOCC1)C2` [Example 41, 3-(3-ethyl-4-oxo-spiro[6,8-dihydro-5H-pyrazolo[4,3-c]azepine-7,4′-tetrahydropyran]-1-yl)propyl 3-methylimidazole-4-carboxylate], the pIC50 is 6.30 to 7.00.

With `CCc1nn(CCCOC(=O)c2oncc2C)c2c1C(=O)NCC1(CCOCC1)C2` [Example 42, 3-(3-ethyl-4-oxo-spiro[6,8-dihydro-5H-pyrazolo[4,3-c]azepine-7,4′-tetrahydropyran]-1-yl)propyl 4-methylisoxazole-5-carboxylate], the pIC50 is 6.30 to 7.00.

Turning to `CCc1nn(CCCOC(=O)c2cc(C)no2)c2c1C(=O)NCC1(CCOCC1)C2` [Example 43, 3-(3-ethyl-4-oxo-spiro[6,8-dihydro-5H-pyrazolo[4,3-c]azepine-7,4′-tetrahydropyran]-1-yl)propyl 3-methylisoxazole-5-carboxylate], the pIC50 is 6.30 to 7.00.

On to `CCc1nn(CCCOC(=O)c2cc(C)on2)c2c1C(=O)NCC1(CCOCC1)C2` [Example 44, 3-(3-ethyl-4-oxo-spiro[6,8-dihydro-5H-pyrazolo[4,3-c]azepine-7,4′-tetrahydropyran]-1-yl)propyl 5-methylisoxazole-3-carboxylate], for which the pIC50 was 6.30 to 7.00.

As to `CCc1nn(CCCOC(=O)c2conc2C)c2c1C(=O)NCC1(CCOCC1)C2` [Example 45, 3-(3-ethyl-4-oxo-spiro[6,8-dihydro-5H-pyrazolo[4,3-c]azepine-7,4′-tetrahydropyran]-1-yl)propyl 3-methylisoxazole-4-carboxylate], the pIC50 is 6.30 to 7.00.

For the compound `CCc1nn(CCCOC(=O)c2coc(C)n2)c2c1C(=O)NCC1(CCOCC1)C2` [Example 46, 3-(3-ethyl-4-oxo-spiro[6,8-dihydro-5H-pyrazolo[4,3-c]azepine-7,4′-tetrahydropyran]-1-yl)propyl 2-methyloxazole-4-carboxylate], the pIC50 was below 6.30.

Consider `CCc1nn(CCCOC(=O)c2ocnc2C)c2c1C(=O)NCC1(CCOCC1)C2` [Example 47, 3-(3-ethyl-4-oxo-spiro[6,8-dihydro-5H-pyrazolo[4,3-c]azepine-7,4′-tetrahydropyran]-1-yl)propyl 4-methyloxazole-5-carboxylate], for which the pIC50 is 6.30 to 7.00.

As for `CCc1nn(CCCOC(=O)c2cnc(C)o2)c2c1C(=O)NCC1(CCOCC1)C2` [Example 48, 3-(3-ethyl-4-oxo-spiro[6,8-dihydro-5H-pyrazolo[4,3-c]azepine-7,4′-tetrahydropyran]-1-yl)propyl 2-methyloxazole-5-carboxylate], the pIC50 was 6.30 to 7.00.
